Reference: publication PMC4675551, “Protein Kinase C-Independent Inhibition of Organic Cation Transporter 1 Activity by the Bisindolylmaleimide Ro 31-8220” (PLoS ONE, 2015)

Key:
Type in all cases: cell-based
[1] = molecular target: T1, organic cation transporter 1 (OCT1) (Homo sapiens, UniProt O15245); experiment: inhibition of TEA and DAPI uptake in HEK-OCT1 cells at […]
T1 construct: gene SLC22A1; NM_003057 overexpressed in HEK293 cells
T1 sequence (O15245 1-554): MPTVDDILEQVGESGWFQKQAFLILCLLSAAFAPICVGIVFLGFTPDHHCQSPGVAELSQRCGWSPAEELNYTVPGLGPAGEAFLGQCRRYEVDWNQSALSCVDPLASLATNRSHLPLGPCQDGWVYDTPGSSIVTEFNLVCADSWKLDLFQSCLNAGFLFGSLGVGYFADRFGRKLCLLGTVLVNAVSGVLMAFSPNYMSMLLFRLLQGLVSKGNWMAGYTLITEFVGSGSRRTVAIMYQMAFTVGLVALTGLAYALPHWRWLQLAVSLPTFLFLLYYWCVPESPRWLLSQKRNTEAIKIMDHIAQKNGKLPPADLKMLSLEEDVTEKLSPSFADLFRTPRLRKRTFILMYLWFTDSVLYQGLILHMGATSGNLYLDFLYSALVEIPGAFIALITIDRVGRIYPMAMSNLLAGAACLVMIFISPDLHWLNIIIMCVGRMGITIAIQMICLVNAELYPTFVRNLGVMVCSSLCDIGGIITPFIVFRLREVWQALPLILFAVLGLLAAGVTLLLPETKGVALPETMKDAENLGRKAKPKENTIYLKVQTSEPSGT

MATE2-K = molecular target: T2, MATE2-K (Homo sapiens, UniProt Q86VL8); experiment: inhibition of […]-TEA uptake in HEK-MATE2-K cells
T2 construct: gene SLC47A2; NM_152908 overexpressed in HEK293 cells
T2 sequence (Q86VL8 1-566 isoform Q86VL8-3): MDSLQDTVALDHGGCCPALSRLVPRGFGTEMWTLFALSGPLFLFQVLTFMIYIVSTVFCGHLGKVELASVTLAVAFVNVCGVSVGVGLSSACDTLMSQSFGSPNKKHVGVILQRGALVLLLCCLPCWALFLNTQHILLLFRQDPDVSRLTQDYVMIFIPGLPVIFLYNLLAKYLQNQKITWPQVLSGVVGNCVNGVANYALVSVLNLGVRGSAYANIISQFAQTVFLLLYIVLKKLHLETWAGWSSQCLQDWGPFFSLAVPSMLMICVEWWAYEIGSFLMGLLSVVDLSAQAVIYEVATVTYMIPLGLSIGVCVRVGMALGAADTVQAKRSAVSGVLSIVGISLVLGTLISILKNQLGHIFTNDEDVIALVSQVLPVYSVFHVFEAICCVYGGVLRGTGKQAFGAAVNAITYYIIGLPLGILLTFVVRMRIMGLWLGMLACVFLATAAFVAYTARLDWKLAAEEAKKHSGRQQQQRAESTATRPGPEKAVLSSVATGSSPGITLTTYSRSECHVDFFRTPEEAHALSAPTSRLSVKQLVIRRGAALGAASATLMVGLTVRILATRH

[2] = molecular target: T1, organic cation transporter 1 (OCT1); experiment: cis-inhibition of […]-TEA uptake in HEK-OCT1 cells
[3] = molecular target: T3, organic cation transporter 2 (OCT2) (Homo sapiens, UniProt O15244); experiment: cis-stimulation of […]-TEA uptake in HEK-OCT2 cells
T3 construct: gene SLC22A2; NM_003058 overexpressed in HEK293 cells
T3 sequence (O15244 1-555): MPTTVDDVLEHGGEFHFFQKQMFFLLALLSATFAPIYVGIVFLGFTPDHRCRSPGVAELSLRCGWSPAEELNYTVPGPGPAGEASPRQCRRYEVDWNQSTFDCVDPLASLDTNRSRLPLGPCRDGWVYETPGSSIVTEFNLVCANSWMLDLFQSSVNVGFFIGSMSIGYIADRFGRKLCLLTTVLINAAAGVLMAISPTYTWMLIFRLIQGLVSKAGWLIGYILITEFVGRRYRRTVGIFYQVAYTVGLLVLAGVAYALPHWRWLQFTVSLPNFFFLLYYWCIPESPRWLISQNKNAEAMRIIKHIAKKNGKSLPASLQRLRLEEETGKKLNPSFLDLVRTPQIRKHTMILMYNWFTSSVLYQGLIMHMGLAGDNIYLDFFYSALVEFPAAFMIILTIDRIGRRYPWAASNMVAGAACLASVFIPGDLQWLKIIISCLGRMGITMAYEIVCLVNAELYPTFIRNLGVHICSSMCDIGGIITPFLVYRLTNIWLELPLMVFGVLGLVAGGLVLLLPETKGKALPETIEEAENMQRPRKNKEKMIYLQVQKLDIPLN

[4] = molecular target: T4, multidrug and toxin extrusion protein 1 (MATE1) (Homo sapiens, UniProt Q96FL8); experiment: inhibition of […]-TEA uptake in HEK-MATE1 cells
T4 construct: gene SLC47A1; NM_018242 overexpressed in HEK293 cells
T4 sequence (Q96FL8 1-570): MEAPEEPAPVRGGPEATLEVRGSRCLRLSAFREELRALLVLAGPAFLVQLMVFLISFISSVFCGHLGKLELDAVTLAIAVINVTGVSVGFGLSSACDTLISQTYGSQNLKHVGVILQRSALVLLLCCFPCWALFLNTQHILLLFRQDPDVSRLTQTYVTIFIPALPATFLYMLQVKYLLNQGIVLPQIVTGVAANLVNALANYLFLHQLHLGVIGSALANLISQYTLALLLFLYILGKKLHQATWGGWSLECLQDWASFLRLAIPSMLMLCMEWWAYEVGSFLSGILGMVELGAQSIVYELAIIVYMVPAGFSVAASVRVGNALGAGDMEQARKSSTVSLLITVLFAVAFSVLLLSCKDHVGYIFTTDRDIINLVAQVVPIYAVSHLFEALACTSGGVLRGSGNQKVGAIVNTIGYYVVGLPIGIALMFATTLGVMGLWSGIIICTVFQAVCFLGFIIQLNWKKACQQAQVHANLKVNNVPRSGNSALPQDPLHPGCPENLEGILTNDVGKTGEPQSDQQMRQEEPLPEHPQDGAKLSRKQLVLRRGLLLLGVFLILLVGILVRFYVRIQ

[5] = molecular target: T1, organic cation transporter 1 (OCT1); experiment: inhibition of […]-TEA uptake in HEK-OCT1 cells, […], more than […] inhibition; conditions: read-out: % inhibition at 5 μM

COc1ccc(CCN(C)CCCC(C#N)(c2ccc(OC)c(OC)c2)C(C)C)cc1OC (stereo not shown) [verapamil]
inhibition of TEA and DAPI uptake in HEK-OCT1 cells at 50 μM [1]: the reference OCT1 inhibitor verapamil similarly inhibited DAPI uptake

Cn1cc(C2=C(c3cn(CCCSC(=N)N)c4ccccc34)C(=O)NC2=O)c2ccccc21 [BIM-IX, Ro 31–8220]
IC50 (MATE2-K): 0.19 ± 0.07 µM | IC50 [2]: 0.18 ± 0.05 µM | EC50 [3]: 0.4 ± 0.01 µM | IC50 [4]: 0.039 ± 0.006 µM

Cn1cc(C2=C(c3cn(CCCN)c4ccccc34)C(=O)NC2=O)c2ccccc21 [BIM-VIII]
inhibition at 5 µM [5]: > 50%

NCCCn1cc(C2=C(c3c[nH]c4ccccc34)C(=O)NC2=O)c2ccccc21 [BIM-III]
inhibition at 5 µM [5]: > 50%

CN1CCCC1CCn1cc(C2=C(c3c[nH]c4ccccc34)C(=O)NC2=O)c2ccccc21 (stereo not shown) [BIM-II]
inhibition at 5 µM [5]: > 50%

CN(C)C[C@@H]1CCn2cc(c3ccccc32)C2=C(C(=O)NC2=O)c2cn(c3ccccc23)CCO1 [LY 333531]
inhibition at 5 µM [5]: > 50%

CN(C)CCCn1cc(C2=C(c3c[nH]c4ccccc34)C(=O)NC2=O)c2ccccc21 [BIM-I]
inhibition at 5 µM [5]: > 50%
